Results: article PMC6444227, “Pharmacological Evaluation of Secondary Metabolites and Their Simultaneous Determination in the Arabian Medicinal Plant Plicosepalus curviflorus Using HPTLC Validated Method” (Journal of Analytical Methods in Chemistry, 2019)
Values after ≈ are worked out from the molar mass of the structure shown.

What was measured:
[1] = system: Escherichia fergusonii (CU928158.2); assay: Antibacterial well diffusion; format: cell-based; settings: 10 µL per well, mean ± SD
Text: (§1) (CP017183.1), Escherichia fergusonii (CU928158.2), and Pseudomonas aeruginosa (NR-117678.1) and Gram-positive Staphylococcus aureus (CP011526.1) and Bacillus licheniformis (KX785171.1) using well diffusion and broth microdilution techniques as described by Berghe and […] [16]. The bacterial strains were suspended in a nutrient broth for 24 hr, and the suspension then spread on Mueller-Hinton agar. […] Amikacin was used as the positive control.

[2] = system: Klebsiella pneumonia (ATCC 700603); assay: Antibacterial well diffusion; format: cell-based; settings: 10 µL per well, mean ± SD
Text: as §1

[3] = system: Pseudomonas aeruginosa (ATCC 27853); assay: Antibacterial well diffusion; format: cell-based; settings: 10 µL per well, mean ± SD
Text: as §1

Staphylococcus aureus [4] = assay: Antibacterial well diffusion; format: cell-based; settings: 10 µL per well, mean ± SD
Text: as §1

[5] = system: Bacillus cereus (ATCC 14579); assay: Antibacterial well diffusion; format: cell-based; settings: 10 µL per well, mean ± SD
[6] = system: Escherichia fergusonii (CU928158.2); assay: Antibacterial broth microdilution (MIC); format: cell-based; settings: read-out: MIC, E. fergusonii
Text: as §1

[7] = system: Klebsiella pneumonia (ATCC 700603); assay: Antibacterial broth microdilution (MIC); format: cell-based; settings: Klebsiella pneumoniae, ATCC700603, read-out: MIC, K. pneumonia
Text: as §1

[8] = system: Pseudomonas aeruginosa (ATCC 27853); assay: Antibacterial broth microdilution (MIC); format: cell-based; settings: ATCC27853, read-out: MIC, P. aeruginosa
Text: as §1

Staphylococcus aureus [9] = assay: Antibacterial broth microdilution (MIC); format: cell-based; settings: read-out: MIC, S. aureus
Text: as §1

[10] = system: Bacillus cereus (ATCC 14579); assay: Antibacterial broth microdilution (MIC); format: cell-based; settings: ATCC14579, read-out: MIC, B. cereus
PPARα = molecular target: T1, PPARα (Homo sapiens, UniProt Q07869); assay: PPARα reporter gene assay (luciferase fold induction); format: cell-based
T1 construct: expressed in transfected cells
T1 sequence (Q07869 1-468): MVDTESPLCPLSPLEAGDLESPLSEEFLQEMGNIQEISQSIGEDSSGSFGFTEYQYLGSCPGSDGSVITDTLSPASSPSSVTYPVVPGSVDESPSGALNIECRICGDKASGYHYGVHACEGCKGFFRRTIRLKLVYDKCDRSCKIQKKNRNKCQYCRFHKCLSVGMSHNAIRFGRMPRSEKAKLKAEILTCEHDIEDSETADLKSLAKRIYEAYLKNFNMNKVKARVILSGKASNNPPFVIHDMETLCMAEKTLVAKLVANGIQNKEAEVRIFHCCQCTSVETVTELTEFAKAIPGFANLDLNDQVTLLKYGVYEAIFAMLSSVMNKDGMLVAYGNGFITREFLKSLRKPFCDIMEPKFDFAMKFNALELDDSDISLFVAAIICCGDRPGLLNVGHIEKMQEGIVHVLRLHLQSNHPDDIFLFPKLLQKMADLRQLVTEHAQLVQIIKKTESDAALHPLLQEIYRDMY
Method: (§2) A reporter gene assay was carried out as described previously. Briefly, upon confluency, the different concentrations of the test samples were exposed to transfected cells for 24 hrs. Vehicle control was taken into consideration when the fold induction in luciferase activity was calculated. Both rosiglitazone and ciprofibrate were used as control drugs for PPARα and PPARγ, respectively.
(§3) Fold induction in the PPAR activity was detected in response to the methanol fraction and pure compounds according to untreated controls. A fold induction of 1.5 means a 50% increase in PPAR activity. […] Several studies have been carried out with the aim of exploring the potential of selective PPARγ modulators. The dual activator effect of P2 is in agreement with previous literature.

BT-549 = assay: Cytotoxicity assay (Borenfreund method, 48 h); format: cell-based; settings: Homo sapiens, NA = no cytotoxic activity upto 100 µg/mL, read-out: Cancer cells IC50, BT-549
Method: (§4) Four human cancer cell lines (SK-OV-3, SK-MEL, BT-549 and KB) and two noncancerous kidney cell lines (VERO and LLC-PK1) were measured in the in vitro cytotoxic study. Test samples were added on the cell lines with variable concentrations, followed by 48 h incubation. According to the Borenfreund method, the cell viability was determined at the end of incubation, using doxorubicin as a positive control.

KB = assay: Cytotoxicity assay (Borenfreund method, 48 h); format: cell-based; settings: Homo sapiens, NA = no cytotoxic activity upto 100 µg/mL, read-out: Cancer cells IC50, KB
Method: as §4

LLC-PK11 = assay: Cytotoxicity assay (Borenfreund method, 48 h); format: cell-based; settings: NA = no cytotoxic activity upto 100 µg/mL, read-out: Noncancer cells IC50, LLC-PK11
Method: as §4

SK-MEL = assay: Cytotoxicity assay (Borenfreund method, 48 h); format: cell-based; settings: Homo sapiens, NA = no cytotoxic activity upto 100 µg/mL, read-out: Cancer cells IC50, SK-MEL
Method: as §4

SK-OV-3 = assay: Cytotoxicity assay (Borenfreund method, 48 h); format: cell-based; settings: Homo sapiens, NA = no cytotoxic activity upto 100 µg/mL, read-out: Cancer cells IC50, SK-OV-3
Method: as §4

VERO = assay: Cytotoxicity assay (Borenfreund method, 48 h); format: cell-based; settings: Chlorocebus sabaeus, NA = no cytotoxic activity upto 100 µg/mL, read-out: Noncancer cells IC50, VERO
Method: as §4

PPARγ = molecular target: T2, PPARγ (Homo sapiens, UniProt P37231); assay: PPARγ reporter gene assay (luciferase fold induction); format: cell-based; settings: dual activation
T2 construct: expressed in transfected cells
T2 sequence (P37231 1-505): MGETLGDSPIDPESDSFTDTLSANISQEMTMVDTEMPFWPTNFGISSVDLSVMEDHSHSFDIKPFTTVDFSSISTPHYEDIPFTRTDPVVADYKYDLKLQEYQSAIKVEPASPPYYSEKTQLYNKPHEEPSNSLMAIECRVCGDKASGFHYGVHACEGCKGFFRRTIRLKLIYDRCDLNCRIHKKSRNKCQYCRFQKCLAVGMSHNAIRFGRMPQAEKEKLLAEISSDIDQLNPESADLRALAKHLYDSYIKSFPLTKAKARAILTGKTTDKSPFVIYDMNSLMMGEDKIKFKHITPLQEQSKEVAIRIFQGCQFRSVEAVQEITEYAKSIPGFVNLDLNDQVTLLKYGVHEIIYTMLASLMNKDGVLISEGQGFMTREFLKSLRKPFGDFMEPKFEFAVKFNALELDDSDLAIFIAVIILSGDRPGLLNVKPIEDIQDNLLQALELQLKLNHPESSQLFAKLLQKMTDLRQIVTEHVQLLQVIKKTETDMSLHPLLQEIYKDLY
Method: as §2, §3

HepG2 cells = assay: Cellular antioxidant assay (decrease in oxidative stress, ABAP); format: cell-based, human
Method: Human hepatoma cell line (HepG2) was the cell line of choice in this study according to the previously described method. At a density of 60,000 cells/well, the HepG2 cells were seeded in a 96-well plate and incubated for 24 h for confluency. PBS was used for washing the cells, followed by samples treatment. The SpectraMax plate reader was used for reading the plates after addition of 600 μM of ABAP. The area under the curve (AUC) of fluorescence units and time were two parameters used for indication of the percent decrease in oxidative stress. Percent decrease in oxidative stress = 100 − ((AUC sample/AUC control) × 100). Quercetin was used as a positive control.

iNOS = iNOS inhibition, nitrite level in LPS-treated macrophages (Griess); format: cell-based, mouse; settings: RAW264.7, LPS 5 µg/mL, 24 h, NA = no activity up to 100 µg/mL
Method: Mouse macrophage (RAW264.7) cells were seeded in the wells of 96-well plates followed by 24 hrs for confluency according to the method described previously. The test samples were treated with LPS (5 μg/mL) and followed by 24-hour incubation as well. The nitrite level in cell supernatant was measured by Griess reagent. The dose response curves gave indication for IC50 values. Parthenolide was used as positive control.

[11] = system: four cancerous cell lines as well as the two normal cell lines; assay: Cytotoxicity, whole panel; format: cell-based; settings: all cell lines
Method: as §4

MIC [6] [µg/mL] | MIC [7] [µg/mL] | MIC [8] [µg/mL] | MIC (Staphylococcus aureus [9]) [µg/mL] | MIC [10] [µg/mL] | Structure (SMILES) | ZOI diameter, E. fergusonii [1] [mm] | ZOI diameter, K. pneumonia [2] [mm] | ZOI diameter, P. aeruginosa [3] [mm] | ZOI diameter, S. aureus (Staphylococcus aureus [4]) [mm] | ZOI diameter, B. cereus [5] [mm] | IC50 (LLC-PK11) [µg/mL] | other results
4.5 (≈ 7.68 µM) | 5 (≈ 8.54 µM) | 8 (≈ 13.7 µM) | 6.2 (≈ 10.6 µM) | 7.3 (≈ 12.5 µM) | NCC[C@H](O)C(=O)N[C@@H]1C[C@H](N)[C@@H](O[C@H]2O[C@H](CN)[C@@H](O)[C@H](O)[C@H]2O)[C@H](O)[C@H]1O[C@H]1O[C@H](CO)[C@@H](O)[C@H](N)[C@H]1O [AMK, Amikacin, reference compound] | 24 ± 1.5 | 25 ± 0.8 | 18 ± 1.3 | 24 ± 1 | 20 ± 0.9 | – | –
– | – | – | – | – | CC(C)(Oc1ccc(C2CC2(Cl)Cl)cc1)C(=O)O (centres unmarked) [Ciprofibrate, reference compound] | – | – | – | – | – | – | fold induction at 10 µM (PPARα; control drug at 10 µM, read-out: Fold induction PPAR alpha): 2.2
– | – | – | – | – | COc1cccc2c1C(=O)c1c(O)c3c(c(O)c1C2=O)C[C@@](O)(C(=O)CO)C[C@@H]3O[C@H]1C[C@H](N)[C@H](O)[C@H](C)O1 [Doxorubicin] | – | – | – | – | – | 0.85 (≈ 1.56 µM) | IC50 (BT-549): 1.93 µg/mL (≈ 3.55 µM); IC50 (KB): 1.85 µg/mL (≈ 3.4 µM); IC50 (SK-MEL): 1.23 µg/mL (≈ 2.26 µM); IC50 (SK-OV-3): 0.8 µg/mL (≈ 1.47 µM); IC50 (VERO): > 5 µg/mL
9.3 (≈ 30.8 µM) | 6.2 (≈ 20.5 µM) | 6.6 (≈ 21.8 µM) | 8.3 (≈ 27.5 µM) | 8.4 (≈ 27.8 µM) | O=c1c(O)c(-c2ccc(O)c(O)c2)oc2cc(O)cc(O)c12 [Compound P1, quercetin] | 16.3 ± 0.57 | 21.3 ± 1.15 | 21 ± 1 | 18 ± 1 | 19.3 ± 1.15 | 55 (≈ 182 µM) | PPAR alpha agonistic activity, fold induction (PPARα; dual activation): no PPAR agonistic activity; PPAR gamma agonistic activity, fold induction (PPARγ): no PPAR agonistic activity; % decrease in oxidative stress (HepG2 cells; at 250 µg/mL for pure compounds): 52%; % decrease in oxidative stress (HepG2 cells; positive control at 50 µM): 75%; IC50 (iNOS; Mus musculus, RAW264.7, 24 h): 25 µg/mL (≈ 82.7 µM); iNOS inhibition (IC50) (iNOS): 48 µg/mL; Cytotoxicity (in words) [11]: not cytotoxic
